Assay results published in publication PMC3574223 (Bioorganic & medicinal chemistry, 2013).

Tested on: human aortic smooth muscle cells (HASMCs)
Test: Intracellular NO determination using DAF-FM DA
Assay type: cell-based
Settings: increasing ABH concentrations 1 µM-5 mM

## N[C@@H](CCCCB(O)O)C(=O)O [ABH, S-2-amino-6-boronic acid]
  intracellular NO and/or N2O3 (DAF-FM DA fluorescence): the amount of intracellular NO rises with increasing concentrations of ABH
